Patent publication US20090099195A1 (ASTRAZENECA AB, priority 2007, published 2009)

Assays:
[1] = molecular target: T1, hP2X3 (human Purinergic P2X receptors subtype 3), clone A (Homo sapiens, UniProt P56373); experiment: hP2X3 FLIPR calcium (Fluo-4) antagonist assay, clone A; settings: Human P2X3 FLIPR Clone A Mean IC50 (nM), RLE cells expressing hP2X3 clone A (AB016608); agonist 500 nM α,β-methylene-ATP
T1 sequence (P56373 1-397): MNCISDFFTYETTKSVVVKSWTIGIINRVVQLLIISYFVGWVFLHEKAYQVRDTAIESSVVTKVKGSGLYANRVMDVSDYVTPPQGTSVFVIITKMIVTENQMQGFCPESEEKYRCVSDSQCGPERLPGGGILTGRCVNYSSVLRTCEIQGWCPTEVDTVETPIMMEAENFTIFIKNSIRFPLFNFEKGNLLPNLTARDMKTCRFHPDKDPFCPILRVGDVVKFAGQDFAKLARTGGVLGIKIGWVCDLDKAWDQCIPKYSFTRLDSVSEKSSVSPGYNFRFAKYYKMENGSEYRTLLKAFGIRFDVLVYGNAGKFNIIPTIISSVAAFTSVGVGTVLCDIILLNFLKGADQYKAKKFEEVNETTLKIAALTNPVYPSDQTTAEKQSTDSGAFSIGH

[2] = molecular target: T2, hP2X3 (human Purinergic P2X receptors subtype 3), clone B (Homo sapiens, UniProt P56373); experiment: hP2X3 FLIPR calcium (Fluo-4) antagonist assay, clone B; settings: Human P2X3 FLIPR Clone B IC50 (nM), RLE cells expressing hP2X3 clone B (NM_002559); agonist 500 nM α,β-methylene-ATP
T2 sequence (P56373 1-397): T1 sequence (P56373 1-397)

Compound	IC50 [1] [nM]	IC50 [2] [nM]
CCN(c1nc(N2CCN(C(C)=O)CC2)nc2c1CN(C(C)C)C2=O)C(C)c1ccc2ncccc2c1 (single isomer, unassigned) [Example 258, 2-(4-acetylpiperazin-1-yl)-4-(ethyl(1-(quinolin-6-yl)ethyl)amino)-6-isopropyl-5H-pyrrolo[3,4-d]pyrimidin-7(6H)-one]	232	250
CC(=O)N1CCN(c2nc3c(c(N(C)C(C)c4ccc5ncccc5c4)n2)CN(C(C)C)C3=O)CC1 (single isomer, unassigned) [Example 260, 2-(4-acetylpiperazin-1-yl)-6-isopropyl-4-(methyl(1-(quinolin-6-yl)ethyl)amino)-5H-pyrrolo[3,4-d]pyrimidin-7(6H)-one]	1900	2300
CCOc1ccc([C@H](CO)Nc2nc(N3CCN(C(C)=O)CC3)nc3c2CN(C(C)C)C3=O)cc1 [Example 180, (R)-2-(4-acetylpiperazin-1-yl)-4-(1-(4-ethoxyphenyl)-2-hydroxyethylamino)-6-isopropyl-5H-pyrrolo[3,4-d]pyrimidin-7(6H)-one]	7120	5800
CC(=O)N1CCN(c2nc(N[C@H](C)c3cccc(OC(F)F)c3)c3c(n2)C(=O)N(C(C)C)C3)CC1 [Example 181, (R)-2-(4-acetylpiperazin-1-yl)-4-(1-(3-(difluoromethoxy)phenyl)ethylamino)-6-isopropyl-5H-pyrrolo[3,4-d]pyrimidin-7(6H)-one]	175	320
CC(=O)N1CCN(c2nc(N[C@H](C)c3ccc(C(F)(F)F)c(F)c3)c3c(n2)C(=O)N(C(C)C)C3)CC1 [Example 182, (R)-2-(4-acetylpiperazin-1-yl)-4-(1-(3-fluoro-4-(trifluoromethyl)phenyl)ethylamino)-6-isopropyl-5H-pyrrolo[3,4-d]pyrimidin-7(6H)-one]	271	240
CC(=O)N1CCN(c2nc(N[C@H](C)c3cc(C(F)(F)F)ccc3F)c3c(n2)C(=O)N(C(C)C)C3)CC1 [Example 183, (R)-2-(4-acetylpiperazin-1-yl)-4-(1-(2-fluoro-5-(trifluoromethyl)phenyl)ethylamino)-6-isopropyl-5H-pyrrolo[3,4-d]pyrimidin-7(6H)-one]	199	170
CC(=O)N1CCN(c2nc(N[C@H](C)c3ccc(F)c(C(F)(F)F)c3)c3c(n2)C(=O)N(C(C)C)C3)CC1 [Example 188, (R)-2-(4-acetylpiperazin-1-yl)-4-(1-(4-fluoro-3-(trifluoromethyl)phenyl)ethylamino)-6-isopropyl-5H-pyrrolo[3,4-d]pyrimidin-7(6H)-one]	174	140
CC(=O)N1CCN(c2nc(N[C@H](C)c3ccc(OC4CCC4)cc3)c3c(n2)C(=O)N(C(C)C)C3)CC1 [Example 191, (R)-2-(4-acetylpiperazin-1-yl)-4-(1-(4-cyclobutoxyphenyl)ethylamino)-6-isopropyl-5H-pyrrolo[3,4-d]pyrimidin-7(6H)-one]	81.3	62
CCOc1ccc(CC(C)(C)Nc2nc(N3CCN(C(C)=O)CC3)nc3c2CN(C(C)C)C3=O)cc1 [Example 198, 2-(4-acetylpiperazin-1-yl)-4-(1-(4-ethoxyphenyl)-2-methylpropan-2-ylamino)-6-isopropyl-5H-pyrrolo[3,4-d]pyrimidin-7(6H)-one]	1230	640
CC(=O)N1CCN(c2nc(NCc3nc4ccccc4s3)c3c(n2)C(=O)N(C(C)C)C3)CC1 [Example 199, 2-(4-acetylpiperazin-1-yl)-4-(benzo[d]thiazol-2-ylmethylamino)-6-isopropyl-5H-pyrrolo[3,4-d]pyrimidin-7(6H)-one]	5050	2300
CC(C)N1Cc2c(nc(N3CCN(C)C(=O)C3)nc2N(C)Cc2cc3ccccc3cn2)C1=O [Example 200, 6-isopropyl-4-((isoquinolin-3-ylmethyl)(methyl)amino)-2-(4-methyl-3-oxopiperazin-1-yl)-5H-pyrrolo[3,4-d]pyrimidin-7(6H)-one]	501	790
CCOc1ccc([C@@H](C)Nc2nc(N3CCN(C)C(=O)C3)nc3c2CN(C(C)C)C3=O)cc1F [Example 201, (R)-4-(1-(4-ethoxy-3-fluorophenyl)ethylamino)-6-isopropyl-2-(4-methyl-3-oxopiperazin-1-yl)-5H-pyrrolo[3,4-d]pyrimidin-7(6H)-one]	723	410

Next, values leading:

IC50 [1] [nM]	IC50 [2] [nM]	Compound
71.1	64	CC(=O)N1CCN(c2nc3c(c(N(C)C(C)c4ccc5ncccc5c4)n2)CN(C(C)C)C3=O)CC1 (single isomer, unassigned) [Example 261, 2-(4-acetylpiperazin-1-yl)-6-isopropyl-4-(methyl(1-(quinolin-6-yl)ethyl)amino)-5H-pyrrolo[3,4-d]pyrimidin-7(6H)-one]
40	32	CCC(C)N1Cc2c(nc(N3CCN(C(C)=O)CC3)nc2N(CC)Cc2cc3ccccc3cn2)C1=O (single isomer, unassigned) [Example 317, 2-(4-acetylpiperazin-1-yl)-4-[ethyl(isoquinolin-3-ylmethyl)amino]-6-(1-methylpropyl)-5,6-dihydro-7H-pyrrolo[3,4-d]pyrimidin-7-one]
43	41	CCC(C)N1Cc2c(nc(N3CCN(C(C)=O)CC3)nc2N(CC)Cc2cc3ccccc3cn2)C1=O (single isomer, unassigned) [Example 318, 2-(4-acetylpiperazin-1-yl)-4-[ethyl(isoquinolin-3-ylmethyl)amino]-6-(1-methylpropyl)-5,6-dihydro-7H-pyrrolo[3,4-d]pyrimidin-7-one]
101	87	CC(=O)N1CCN(c2nc(N[C@H](C)c3cc(F)cc(C(F)(F)F)c3)c3c(n2)C(=O)N(C(C)C)C3)CC1 [Example 184, (R)-2-(4-acetylpiperazin-1-yl)-4-(1-(3-fluoro-5-(trifluoromethyl)phenyl)ethylamino)-6-isopropyl-5H-pyrrolo[3,4-d]pyrimidin-7(6H)-one]
79.7	74	CCOc1ccc([C@H](Nc2nc(N3CCN(C(C)=O)CC3)nc3c2CN(C(C)C)C3=O)C2CC2)cc1 [Example 185, (R)-2-(4-acetylpiperazin-1-yl)-4-(cyclopropyl(4-ethoxyphenyl)methylamino)-6-isopropyl-5H-pyrrolo[3,4-d]pyrimidin-7(6H)-one]
138	100	CC(=O)N1CCN(c2nc(N[C@H](C)c3ccc(C(F)(F)F)cc3F)c3c(n2)C(=O)N(C(C)C)C3)CC1 [Example 186, (R)-2-(4-acetylpiperazin-1-yl)-4-(1-(2-fluoro-4-(trifluoromethyl)phenyl)ethylamino)-6-isopropyl-5H-pyrrolo[3,4-d]pyrimidin-7(6H)-one]
117	96	CC(=O)N1CCN(c2nc(N[C@H](C)c3cccc(C(F)(F)F)c3F)c3c(n2)C(=O)N(C(C)C)C3)CC1 [Example 187, (R)-2-(4-acetylpiperazin-1-yl)-4-(1-(2-fluoro-3-(trifluoromethyl)phenyl)ethylamino)-6-isopropyl-5H-pyrrolo[3,4-d]pyrimidin-7(6H)-one]
76.6	79	CCOc1ccc([C@@H](CO)Nc2nc(N3CCN(C(C)=O)CC3)nc3c2CN(C(C)C)C3=O)cc1 [Example 189, (S)-2-(4-acetylpiperazin-1-yl)-4-(1-(4-ethoxyphenyl)-2-hydroxyethylamino)-6-isopropyl-5H-pyrrolo[3,4-d]pyrimidin-7(6H)-one]
47.2	44	CC(=O)N1CCN(c2nc(N[C@H](C)c3ccc(OC(C)C)c(F)c3)c3c(n2)C(=O)N(C(C)C)C3)CC1 [Example 190, (R)-2-(4-acetylpiperazin-1-yl)-4-(1-(3-fluoro-4-isopropoxyphenyl)ethylamino)-6-isopropyl-5H-pyrrolo[3,4-d]pyrimidin-7(6H)-one]
47	51	CCOc1ccc([C@@H](C)Nc2nc(N3CCN(C(C)=O)CC3)nc3c2CN(C(C)C)C3=O)c(OC)c1 [Example 202, (R)-2-(4-acetylpiperazin-1-yl)-4-(1-(4-ethoxy-2-methoxyphenyl)ethylamino)-6-isopropyl-5H-pyrrolo[3,4-d]pyrimidin-7(6H)-one]
65.8	62	COc1cc(OC(C)C)ccc1[C@@H](C)Nc1nc(N2CCN(C(C)=O)CC2)nc2c1CN(C(C)C)C2=O [Example 203, (R)-2-(4-acetylpiperazin-1-yl)-4-(1-(4-isopropoxy-2-methoxyphenyl)ethylamino)-6-isopropyl-5H-pyrrolo[3,4-d]pyrimidin-7(6H)-one]
50.4	38	CCOc1ccc([C@@H](C)Nc2nc(N3CCN(C(C)=O)CC3)nc3c2CN(C(C)C)C3=O)c(F)c1 [Example 204, (R)-2-(4-acetylpiperazin-1-yl)-4-(1-(4-ethoxy-2-fluorophenyl)ethylamino)-6-isopropyl-5H-pyrrolo[3,4-d]pyrimidin-7(6H)-one]
27.2	16	CC(=O)N1CCN(c2nc(NCc3cc4ccccc4c(C)n3)c3c(n2)C(=O)N(C(C)C)C3)CC1 [Example 259, 2-(4-acetylpiperazin-1-yl)-6-isopropyl-4-((1-methylisoquinolin-3-yl)methylamino)-5H-pyrrolo[3,4-d]pyrimidin-7(6H)-one]
